Test results from patent US9029405B2, “5-(biphenyl-4-yl)-3-phenyl-1,2,4-oxadiazolyl derivatives as ligands on the sphingosine 1-phosphate(SIP)receptors” (Merck Serono S.A., priority 2010, dated 2015).
Counter-ions that a name gives are not always drawn. Like-named read-outs stand apart in the source and are kept apart here.

What was measured:
S1P1 [1] = target: T1, S1P1 (Homo sapiens, UniProt P21453); experiment: Receptor binding assay, [33P]sphingosine 1-phosphate competition, membranes of CHO cells expressing S1P1
Procedure, shortened: (§1)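 SPA competition on CHO membranes with [33P]S1P at 30 pM (S1P1) or 15 pM (S1P3), in 50 mM HEPES pH 7.5, 5 mM MgCl2, 100 mM NaCl, 0.4% fatty acid-free BSA, 60 min at RT. Non-specific binding defined by 1000-fold unlabeled S1P; Ki values reported.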
Target sequence in this assay (P21453 whole entry, species assumed): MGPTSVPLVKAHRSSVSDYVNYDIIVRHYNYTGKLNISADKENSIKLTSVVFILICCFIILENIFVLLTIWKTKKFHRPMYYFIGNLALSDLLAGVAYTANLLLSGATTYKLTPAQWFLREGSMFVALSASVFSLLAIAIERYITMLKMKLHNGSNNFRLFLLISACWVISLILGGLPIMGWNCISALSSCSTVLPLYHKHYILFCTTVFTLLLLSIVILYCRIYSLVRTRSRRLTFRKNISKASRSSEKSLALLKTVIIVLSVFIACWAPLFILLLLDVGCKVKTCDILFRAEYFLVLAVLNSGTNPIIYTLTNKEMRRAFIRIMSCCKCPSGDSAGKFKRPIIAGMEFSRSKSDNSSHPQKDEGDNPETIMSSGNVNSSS

S1P3 = S1P3 (Homo sapiens, UniProt Q99500); experiment: Receptor binding assay, [33P]sphingosine 1-phosphate competition, membranes of CHO cells expressing S1P3
Procedure, shortened: as §1

S1P1 [2] = target: T1, S1P1; experiment: S1P1 internalization assay in S1P1-U2OS cells (cell imaging); assay type: cell-based; set-up: host or cells: U2OS (human bone osteosarcoma epithelial cells); conditions: U2OS cells expressing S1P1-EGFP, 384-well format
Procedure, shortened: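 U2OS cells stably expressing human S1P1-EGFP, serum-starved 2 h in medium with 0.1% fatty-acid-free BSA, then compound 1 h at 37° C. After fixation and Hoechst nuclear stain, receptor internalization imaged as EGFP spot count per nucleus.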
Target sequence in this assay (P21453 whole entry): as the sequence (P21453 whole entry, species assumed) above

[3] = 384 well plate, read-out: S1P1 Binding Ki [M] (384 well plate)
[4] = 384 well plate, read-out: S1P3 Binding Ki [M] (384 well plate)
[5] = 96 well plate, read-out: S1P1 Binding Ki [M] (96 well plate)
[6] = 96 well plate, read-out: S1P3 Binding Ki [M] (96 well plate)

Chain of S1P3 (Q99500 whole entry, species assumed): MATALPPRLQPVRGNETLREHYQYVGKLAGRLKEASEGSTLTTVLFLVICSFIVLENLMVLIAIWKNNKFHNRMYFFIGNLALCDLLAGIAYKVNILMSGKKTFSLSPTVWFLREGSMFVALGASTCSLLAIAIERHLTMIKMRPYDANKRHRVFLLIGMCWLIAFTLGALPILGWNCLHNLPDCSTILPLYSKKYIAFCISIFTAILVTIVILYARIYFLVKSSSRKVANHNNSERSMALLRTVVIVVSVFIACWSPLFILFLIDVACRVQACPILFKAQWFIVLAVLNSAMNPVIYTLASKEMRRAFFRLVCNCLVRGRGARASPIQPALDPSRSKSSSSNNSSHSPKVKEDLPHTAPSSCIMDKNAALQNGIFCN

| Compound | melting point [°C] | Ki (S1P1 [1]; [3]) [M] | Ki (S1P3; [4]) [M] | EC50 (S1P1 [2]) [nM] | Ki (S1P1 [1]; [5]) [M] | Ki (S1P3; [6]) [M] |
| --- | --- | --- | --- | --- | --- | --- |
| CCC(NCc1ccc(-c2noc(-c3ccc(-c4ccccc4C)c(C(F)(F)F)c3)n2)cc1F)C(=O)O (centres unmarked) (as salt: hydrochloride) [Example 41, 2-[(2-fluoro-4-{5-[2′-methyl-2-(trifluoromethyl)biphenyl-4-yl]-1,2,4-oxadiazol-3-yl}benzyl)amino]butanoic acid, hydrochloride salt] | 214 | – | – | – | – | – |
| Cc1ccccc1-c1ccc(-c2nc(-c3ccc([C@@H](C)N(C)CC(=O)O)cc3)no2)cc1C(F)(F)F (as salt: hydrochloride) [Example 36, N-methyl-N-[(1R)-1-(4-{5-[2′-methyl-2-(trifluoromethyl)biphenyl-4-yl]-1,2,4-oxadiazol-3-yl}phenyl)ethyl]glycine, hydrochloride salt] | 221 | – | – | – | – | – |
| Cc1cc(-c2nc(-c3ccc([C@H](C)N(C)CC(=O)O)cc3)no2)ccc1-c1ccccc1C(F)(F)F (as salt: hydrochloride) [Example 33, N-methyl-N-[(1S)-1-(4-{5-[2-methyl-2′-(trifluoromethyl)biphenyl-4-yl]-1,2,4-oxadiazol-3-yl}phenyl)ethyl]glycine, hydrochloride salt] | 217 | – | – | – | – | – |
| Cc1ccccc1-c1ccc(-c2nc(-c3cccc(C(C)NCC(=O)O)c3)no2)cc1C(F)(F)F (centres unmarked) (as salt: hydrochloride) [Example 42, N-[1-(3-{5-[2′-methyl-2-(trifluoromethyl)biphenyl-4-yl]-1,2,4-oxadiazol-3-yl}phenyl)ethyl]glycine, hydrochloride salt] | 177 | – | – | – | – | – |
| Cc1cc(-c2nc(-c3ccc(C(C)NCC(=O)O)cc3)no2)ccc1-c1ccccc1C(F)(F)F (centres unmarked) [Example 23, N-[1-(4-{5-[2-methyl-2′-(trifluoromethyl)biphenyl-4-yl]-1,2,4-oxadiazol-3-yl}phenyl)ethyl]glycine, hydrochloride salt] | – | 1.71e-09 | 7.05e-06 | 21.3 | – | – |
| Cc1ccccc1-c1ccc(-c2nc(-c3ccc([C@H](C)N[C@H](C)C(=O)O)cc3)no2)cc1C(F)(F)F (racemic) [Example 27, N-[(1S)-1-(4-{5-[2′-methyl-2-(trifluoromethyl)biphenyl-4-yl]-1,2,4-oxadiazol-3-yl}phenyl)ethyl]-D-alanine, hydrochloride salt and N-[(1R)-1-(4-{5-[2′-methyl-2-(trifluoromethyl)biphenyl-4-yl]-1,2,4-oxadiazol-3-yl}phenyl)ethyl]-L-alanine, hydrochloride salt] | – | 2.21e-09 | 1.33e-06 | 7.84 | – | – |
| Cc1ccccc1-c1ccc(-c2nc(-c3ccc(CNC(C)(CO)C(=O)O)cc3)no2)cc1C(F)(F)F (centres unmarked) [Example 65] | – | 4.82e-09 | 2.56e-06 | 7.53 | – | – |
| Cc1ccccc1-c1ccc(-c2nc(-c3cccc(CNC(C)(CO)C(=O)O)c3)no2)cc1C(F)(F)F (centres unmarked) [Example 78] | – | 2.16e-09 | 2.78e-07 | 22.3 | – | – |
| Cc1ccccc1-c1ccc(-c2nc(-c3ccc([C@H](C)N[C@@H](C)C(=O)O)cc3)no2)cc1C(F)(F)F [Example 18, N-[(1S)-1-(4-{5-[2′-methyl-2-(trifluoromethyl)biphenyl-4-yl]-1,2,4-oxadiazol-3-yl}phenyl)ethyl]-L-alanine, hydrochloride salt] | – | 1.03e-08 | 3.65e-06 | 116 | – | – |
| Cc1ccccc1-c1ccc(-c2nc(-c3ccc([C@@H](C)N(C)CC(=O)O)cc3)no2)cc1C(F)(F)F [Example 36, N-methyl-N-[(1R)-1-(4-{5-[2′-methyl-2-(trifluoromethyl)biphenyl-4-yl]-1,2,4-oxadiazol-3-yl}phenyl)ethyl]glycine, hydrochloride salt] | – | 2.55e-09 | 7.93e-07 | 33.6 | – | – |
| Cc1ccccc1-c1ccc(-c2nc(-c3ccc(CNC(C)(C)C(=O)O)cc3)no2)cc1C(F)(F)F [Example 57] | – | 5.69e-09 | > 2e-05 | 19.9 | – | – |
| CCC(NCc1ccc(-c2noc(-c3ccc(-c4ccccc4C)c(C(F)(F)F)c3)n2)cc1F)C(=O)O (centres unmarked) [Example 41, 2-[(2-fluoro-4-{5-[2′-methyl-2-(trifluoromethyl)biphenyl-4-yl]-1,2,4-oxadiazol-3-yl}benzyl)amino]butanoic acid, hydrochloride salt] | – | 4.88e-09 | 8.72e-06 | 12.8 | – | – |
| Cc1cc(-c2nc(-c3ccc(C(C)N(C)CC(=O)O)cc3)no2)ccc1-c1ccccc1C(F)(F)F (centres unmarked) [Example 14, N-methyl-N-[1-(4-{5-[2-methyl-2′-(trifluoromethyl)biphenyl-4-yl]-1,2,4-oxadiazol-3-yl}phenyl)ethyl]glycine, hydrochloride salt] | – | 4.78e-09 | > 2e-05 | 86.2 | – | – |
| Cc1ccccc1-c1ccc(-c2nc(-c3cccc(C(C)NCC(=O)O)c3)no2)cc1C(F)(F)F (centres unmarked) [Example 42, N-[1-(3-{5-[2′-methyl-2-(trifluoromethyl)biphenyl-4-yl]-1,2,4-oxadiazol-3-yl}phenyl)ethyl]glycine, hydrochloride salt] | – | 1.02e-09 | 1.06e-07 | 7.17 | – | – |
| COCc1cc(-c2nc(-c3ccc(CN(C)C4(C(=O)O)CCCC4)cc3)no2)ccc1-c1ccccc1C [Example 53, 1-((4-(5-(2-(methoxymethyl)-2′-methylbiphenyl-4-yl)-1,2,4-oxadiazol-3-yl)benzyl)(methyl)amino)cyclopentanecarboxylic acid] | – | 3.97e-09 | 3.64e-06 | 42.2 | – | – |
| Cc1ccccc1-c1ccc(-c2nc(-c3ccc(C(C)N(C)[C@@H](C)C(=O)O)cc3)no2)cc1C(F)(F)F (some centres unmarked) [Example 39, N-methyl-N-[1-(4-{5-[2′-methyl-2-(trifluoromethyl)biphenyl-4-yl]-1,2,4-oxadiazol-3-yl}phenyl)ethyl]alanine] | – | 4.34e-09 | 3.18e-06 | 20.9 | – | – |
| CCN(Cc1ccc(-c2noc(-c3ccc(-c4ccccc4C)c(C(F)(F)F)c3)n2)cc1)[C@H](C)C(=O)O [Example 90, (R)-2-(Ethyl-{4-[5-(2′-methyl-2-trifluoromethyl-biphenyl-4-yl) [1,2,4]oxadiazol-3-yl]-benzyl}-amino)-propionic acid] | – | 2.48e-09 | 9.48e-07 | 7.92 | – | – |
| Cc1ccccc1-c1ccc(-c2nc(-c3ccc([C@@H](C)N[C@H](C)C(=O)O)cc3)no2)cc1C(F)(F)F [Example 20, N-[(1R)-1-(4-{5-[2′-methyl-2-(trifluoromethyl)biphenyl-4-yl]-1,2,4-oxadiazol-3-yl}phenyl)ethyl]-D-alanine, hydrochloride salt] | – | 1.63e-09 | 2.27e-06 | 7.57 | 8.67e-10 | 6.83e-06 |
| CCN(Cc1ccc(-c2noc(-c3ccc(-c4ccccc4C)c(C(F)(F)F)c3)n2)cc1)[C@@H](C)C(=O)O [Example 89, (2S)-2-(ethyl(4-(5-(2′-methyl-2-(trifluoromethyl)biphenyl-4-yl)-1,2,4-oxadiazol-3-yl)benzyl)amino)propanoic acid] | – | 2.56e-09 | 2.03e-06 | 32.2 | – | – |
| Cc1ccccc1-c1ccc(-c2nc(-c3ccc(CN[C@H](C)C(=O)O)cc3)no2)cc1C(F)(F)F [Example 68] | – | 2.47e-09 | 7.57e-06 | 20.5 | – | – |
| CC[C@@H](N[C@H](C)c1ccc(-c2noc(-c3ccc(-c4ccccc4C)c(C(F)(F)F)c3)n2)cc1)C(=O)O [Example 11, (2R)-2-{[(1R)-1-(4-{5-[2′-methyl-2-(trifluoromethyl)biphenyl-4-yl]-1,2,4-oxadiazol-3-yl}phenyl)ethyl]amino}butanoic acid, hydrochloride salt] | – | 3.96e-09 | 2.32e-06 | 26 | – | – |
| COCc1cc(-c2nc(-c3ccc(C(C)N(C)[C@@H](C)C(=O)O)cc3)no2)ccc1-c1ccccc1C (some centres unmarked) [Example 37, N-[1-(4-{5-[2-(methoxymethyl)-2′-methylbiphenyl-4-yl]-1,2,4-oxadiazol-3-yl}phenyl)ethyl]-N-methylalanine] | – | 1.44e-09 | 3.4e-06 | 15.1 | – | – |
| COCc1cc(-c2nc(-c3ccc([C@H](C)NCC(=O)O)cc3)no2)ccc1-c1ccccc1C [Example 5, N-[(1S)-1-(4-{5-[2-(methoxymethyl)-2′-methylbiphenyl-4-yl]-1,2,4-oxadiazol-3-yl}phenyl)ethyl]glycine, hydrochloride salt] | – | 1.27e-09 | 1.23e-06 | 4.33 | – | – |
| Cc1ccccc1-c1ccc(-c2nc(-c3ccc(CNC4(C(=O)O)CCC4)cc3)no2)cc1C(F)(F)F [Example 66] | – | 3.86e-09 | 9.31e-07 | 27.6 | – | – |
| Cc1ccccc1-c1ccc(-c2nc(-c3ccc([C@@H](C)NCC(=O)O)cc3)no2)cc1C(F)(F)F [Example 22, N-[(1R)-1-(4-{5-[2′-methyl-2-(trifluoromethyl)biphenyl-4-yl]-1,2,4-oxadiazol-3-yl}phenyl)ethyl]glycine, hydrochloride salt] | – | 1.72e-09 | 4.7e-07 | 6.51 | 4.14e-10 | 5.98e-07 |
| CC[C@@H](C(=O)O)N(C)Cc1cccc(-c2noc(-c3ccc(-c4ccccc4C)c(C(F)(F)F)c3)n2)c1 [Example 86] | – | 5.88e-09 | 5.55e-07 | 39.7 | – | – |
